Measurements from patent US20100323972A1, “NON-IMMUNOSUPPRESSIVE CYCLOSPORIN FOR THE TREATMENT OF MUSCULAR DYSTROPHY” (priority 2008, published 2010).
Entries after “also recorded” stand apart in the source; their conditions may differ.

What was measured:
scgd−/− mice [1] = assay: Quantitation of the distribution of fiber areas in skeletal muscles; format: in vivo; conditions: 50 mg/kg/day subcutaneous for 6 weeks; for Fiber area distribution / heterogeneity: 50 mg/kg/day
From the text: (§1) FIG. 3(a) represents reduction of fiber area heterogeneity in muscle from scgd−/− mice after the administration of D-[MeAla]^3-[EtVal]^4-CsA as assessed by quantitation of the distribution of fiber areas in tibialis anterior (muscle). The study included wild type (Wt) mice treated with either vehicle (white bar) or D-[MeAla]^3-[EtVal]^4-CsA (black bar) and scgd−/− mice treated with either vehicle (gray bar or second to last bar in group) or D-[MeAla]^3-[EtVal]^4-CsA (dotted bar or last bar of group).
as §1, with “3(b)” for “3(a)”, “gastrocnemius. Included in the” for “tibialis anterior (muscle). The”, “were” for “included”
as §1, with “3(c)” for “3(a)”, “quadriceps muscle. Measurements were carried out on” for “tibialis anterior (muscle). The study included”
Scgd−/− mice were administered subcutaneously with either D-[MeAla]^3-[EtVal]^4-CsA at a dose of 50 mg/kg/day or vehicle for 6 weeks. […] The administration of the non-immunosuppressive D-[MeAla]^3-[EtVal]^4-CsA to scgd−/− mice reduced the regeneration rate of the fibers and normalized partially the distribution of small and large fibers.

scgd−/− mice [2] = assay: Percentage fibrosis in muscles (hydroxyproline content / trichrome-stained sections); format: in vivo; conditions: trichrome-stained sections of diaphragm, tibialis anterior, gastrocnemius, quadriceps
From the text: FIG. 2(c) represents reduction of muscle pathology after administration of D-[MeAla]^3-[EtVal]^4-CsA in scgd−/− mice as assessed by quantitation of fibrotic areas in trichrome-stained sections from diaphragm (Diaph.), tibialis anterior (TA), gastrocnemius (Gastroc.), quadriceps (Quad). Assessed were sections from wild type (Wt) mice treated with either vehicle (white bar) or D-[MeAla]^3-[EtVal]^4-CsA (black bar) and from scgd−/− mice treated with either vehicle (gray bar or second to last bar in group) or D-[MeAla]^3-[EtVal]^4-CsA (dotted bar or last bar of group).
Different dissected muscles, gastrocnemius, quadriceps, tibialis anterior and heart muscles, were weighed and muscle weight (MW)-to-tibia length (TL) ratios (MW/TL) were determined. Results in FIG. 2(a) and FIG. 2(c) are presented as means±SEM (standard error of the means). A one-way ANOVA was used to compare means among 3 or more independent groups. […]
Percentage fibrosis was assessed by means of a biochemical assay that quantified hydroxyproline content (Parsons et al., Am. J. Pathol., 2006, 168:1975-1985) in diaphragm (Diaph.), tibialis anterior (TA), gastrocnemius (Gastroc.) and quadriceps (Quad) muscles from wild type and scgd−/− mice treated or not treated with D-[MeAla]^3-[EtVal]^4-CsA.

scgd−/− mice [3] = assay: Muscle weight-to-tibia length ratios (pseudo-hypertrophy) in treated scgd−/− mice; format: in vivo
Experimental: (§2) Different dissected muscles, gastrocnemius, quadriceps, tibialis anterior and heart muscles, were weighed and muscle weight (MW)-to-tibia length (TL) ratios (MW/TL) were determined. Results in FIG. 2(a) and FIG. 2(c) are presented as means±SEM (standard error of the means). A one-way ANOVA was used to compare means among 3 or more independent groups. A Newman-Keuls post hoc test was applied whenever multiple comparisons were conducted using InStat 3.0 (GraphPad software from Science Inc.). Values were considered significant when p<0.05.
In response to the numerous degeneration/regeneration cycles, scgd—/− mice initially presented with hypertrophic skeletal muscles as are seen in subjects suffering from LGMD. […] Reduction of skeletal muscular hypertrophy was about 1.3 fold in gastrocnemius (Gastroc.), quadriceps (Quad.) and tibialis anterior (TA) and about 1.2 fold in heart muscle (Heart) of D-[MeAla]^3-[EtVal]^4-CsA-treated scgd−/− mice compared to vehicle-treated animals.

scgd−/− mice [4] = assay: Hematoxylin- and eosin-stained histological sections of quadriceps; format: in vivo; conditions: 50 mg/kg/day subcutaneous
From the text: FIG. 2(b) represents reduction of muscle pathology after administration of D-[MeAla]^3-[EtVal]^4-CsA in Scgd−/− mice observed in representative hematoxylin- and eosin-stained sections of quadriceps from wild type (Wt) mice and scgd−/− mice treated with D-[MeAla]^3-[EtVal]^4-CsA. Corresponding vehicle controls are also shown.
as §2
Reduced pathology in the scgd−/− mice treated with D-[MeAla]^3-[EtVal]^4-CsA was also observed in histological slides of quadriceps (FIG. 2(b)).

mouse model of Duchenne = conditions: inhibition of calcineurin; cited from earlier work

[D-MeAla]^3-[EtVal]^4-CsA [D-[MeAla]^3-[EtVal]^4-CsA]
Fiber area distribution / heterogeneity (scgd−/− mice [1]; gastrocnemius): normalized fiber area heterogeneity; also recorded: partially normalized
Fiber area distribution / heterogeneity (scgd−/− mice [1]; quadriceps): normalized fiber area heterogeneity; also recorded: partially normalized
Population of small fibers compared to vehicle-treated scgd−/− mice (scgd−/− mice [1]; three skeletal muscles): Less small fibers
Fiber area distribution / heterogeneity (scgd−/− mice [1]; tibialis anterior): normalized fiber area heterogeneity; also recorded: partially normalized
Effect on fibrotic areas (FIG. 2(c)) (scgd−/− mice [2]): reduced fibrosis
Reduction of skeletal muscular hypertrophy (MW/TL) compared to vehicle-treated animals (scgd−/− mice [3]; gastrocnemius, 50 mg/kg/day subcutaneous, 4 to 10 weeks of age): about 1.3 fold
Effect on disease-associated increase in muscle weight (FIG. 2(a)) (scgd−/− mice [3]; gastrocnemius, quadriceps, tibialis anterior, heart): prevents an increase in muscle weight
Reduction of hypertrophy (MW/TL) compared to vehicle-treated animals (scgd−/− mice [3]; heart muscle, 50 mg/kg/day subcutaneous, 4 to 10 weeks of age): about 1.2 fold
Reduction of skeletal muscular hypertrophy (MW/TL) compared to vehicle-treated animals (scgd−/− mice [3]; quadriceps, 50 mg/kg/day subcutaneous, 4 to 10 weeks of age): about 1.3 fold
Reduction of skeletal muscular hypertrophy (MW/TL) compared to vehicle-treated animals (scgd−/− mice [3]; tibialis anterior, 50 mg/kg/day subcutaneous, 4 to 10 weeks of age): about 1.3 fold
Myofiber organization and fiber area distributions in histological slides (scgd−/− mice [4]): Improvement in myofiber organization and normalization of fiber area distributions

cyclosporin A [CsA]
Effect on muscle pathology (mouse model of Duchenne): deleterious
